According to the supplement of paper PMC6045584:
± gives the standard deviation of the averaged measurements.

What was measured:
VINORELBINE = compound: CCC1=C[C@@H]2CN(C1)Cc1c([nH]c3ccccc13)[C@@](C(=O)OC)(c1cc3c(cc1OC)N(C)[C@H]1[C@@](O)(C(=O)OC)[C@H](OC(C)=O)[C@]4(CC)C=CCN5CC[C@]31[C@@H]54)C2 [VINORELBINE]; experiment: surviving fraction relative to DMSO-only wells; higher = less growth inhibition; details: exposure time: 5 days
Procedure, shortened: (§1)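 Log-phase tumour cell lines were seeded at 250–500 cells per well in 384-well plates. After 24 hours they were exposed continuously for five days to inhibitors at 0.5, 1, 5, 10, 50, 100, 500 and 1000 nM. Viability was read by CellTiter-Glo luminescence after 10 minutes at room temperature, and surviving fraction is luminescence normalised to the median of DMSO-only wells. Each line was screened three times and kept only if replicate Pearson r >0.7 and median Z' >0.3.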

SUNITINIB = compound: CCN(CC)CCNC(=O)c1c(C)[nH]c(/C=C2\C(=O)Nc3ccc(F)cc32)c1C [SUNITINIB]; experiment: as above; details: exposure time: 5 days
Procedure, shortened: as §1

Test System | surviving fraction (VINORELBINE; 0.5 nM) | surviving fraction (VINORELBINE; 1 nM) | surviving fraction (VINORELBINE; 5 nM) | surviving fraction (VINORELBINE; 10 nM) | surviving fraction (VINORELBINE; 50 nM) | surviving fraction (VINORELBINE; 100 nM) | surviving fraction (VINORELBINE; 500 nM) | surviving fraction (VINORELBINE; 1000 nM) | surviving fraction (SUNITINIB; 0.5 nM) | surviving fraction (SUNITINIB; 1 nM) | surviving fraction (SUNITINIB; 5 nM) | surviving fraction (SUNITINIB; 10 nM) | surviving fraction (SUNITINIB; 50 nM) | surviving fraction (SUNITINIB; 100 nM) | surviving fraction (SUNITINIB; 500 nM) | surviving fraction (SUNITINIB; 1000 nM)
HCC78 LUNG | 0.958 ± 0.18 | 0.806 ± 0.26 | 0.877 ± 0.25 | 0.575 ± 0.15 | 0.0987 ± 0.045 | 0.094 ± 0.016 | 0.0637 ± 0.012 | 0.042 ± 0.011 | 0.831 ± 0.076 | 0.925 ± 0.054 | 0.95 ± 0.099 | 0.46 ± 0.089 | 1.24 ± 0.33 | 1.34 ± 0.44 | 1.67 ± 0.23 | 0.633 ± 0.1
HCC202 BREAST | 1.25 ± 0.24 | 1.21 ± 0.12 | 0.946 ± 0.088 | 0.603 ± 0.14 | 0.383 ± 0.12 | 0.313 ± 0.06 | 0.234 ± 0.056 | 0.205 ± 0.033 | 0.879 ± 0.093 | 0.806 ± 0.23 | 1.29 ± 0.32 | 0.801 ± 0.19 | 1.26 ± 0.17 | – | 0.714 ± 0.15 | 0.639 ± 0.06
HCC1806 BREAST | 0.976 ± 0.16 | 1.02 ± 0.075 | 1.01 ± 0.077 | 0.173 ± 0.14 | 0.0363 ± 0.0095 | 0.0347 ± 0.0038 | 0.042 ± 0.001 | 0.041 ± 0.0053 | 0.677 ± 0.078 | 0.59 ± 0.41 | 0.667 ± 0.45 | 0.566 ± 0.43 | 1 ± 0.091 | 0.978 ± 0.11 | 0.677 ± 0.039 | 0.397 ± 0.044
HCC1954 BREAST | 1.08 ± 0.15 | 0.9287 ± 0.0046 | 0.576 ± 0.01 | 0.311 ± 0.011 | 0.1412 ± 0.0011 | 0.13 ± 0.00071 | 0.091 ± 0.0021 | 0.144 ± 0.025 | 0.363 ± 0.098 | 0.365 ± 0.15 | 0.38 ± 0.16 | 0.434 ± 0.2 | 0.5 ± 0.045 | 0.555 ± 0.052 | 0.616 ± 0.092 | 0.65 ± 0.0088
HCT15 LARGE INTESTINE | 1.1 ± 0.066 | 1.06 ± 0.043 | 1.04 ± 0.085 | 0.957 ± 0.058 | 0.99 ± 0.064 | 0.819 ± 0.093 | 0.183 ± 0.026 | 0.106 ± 0.0059 | 0.882 ± 0.015 | 0.73 ± 0.028 | 0.816 ± 0.034 | 0.449 ± 0.021 | 0.952 ± 0.049 | – | 0.855 ± 0.08 | 0.119 ± 0.015
HELA CERVIX | 1.05 ± 0.054 | 1.02 ± 0.044 | 1.04 ± 0.015 | 0.778 ± 0.043 | 0.145 ± 0.0031 | 0.0838 ± 0.0042 | 0.0347 ± 0.0015 | 0.0298 ± 0.0028 | 0.906 ± 0.047 | 0.892 ± 0.046 | – | 0.853 ± 0.069 | 0.995 ± 0.044 | 0.948 ± 0.052 | 1.03 ± 0.035 | 0.745 ± 0.05
HMLE3 BREAST | 0.993 ± 0.017 | 0.965 ± 0.053 | 1.07 ± 0.044 | 0.987 ± 0.013 | 0.125 ± 0.029 | 0.053 ± 0.012 | 0.0317 ± 0.0067 | 0.0373 ± 0.005 | 0.887 ± 0.037 | 0.715 ± 0.058 | 0.816 ± 0.019 | 0.241 ± 0.053 | 0.867 ± 0.064 | 0.832 ± 0.061 | 0.498 ± 0.018 | 0.108 ± 0.0078
HMT3552 BREAST | 1.05 | 1.05 | 0.59 | 0.209 | 0.104 | 0.117 | 0.253 | 0.221 | – | 0.96 | – | – | – | 1.21 | 0.423 | 0.203
HOS BONE | 1.05 ± 0.05 | 1.01 ± 0.011 | 1.05 ± 0.034 | 0.967 ± 0.031 | 0.13 ± 0.012 | 0.0783 ± 0.0015 | 0.03 ± 0.0035 | 0.033 ± 0.0027 | 0.921 ± 0.015 | 0.937 ± 0.025 | 0.8943 ± 0.0061 | 0.884 ± 0.021 | 0.954 ± 0.01 | 0.9297 ± 0.009 | 0.786 ± 0.017 | 0.471 ± 0.0095
HOSMNG BONE | 0.938 ± 0.14 | 0.956 ± 0.1 | 0.963 ± 0.11 | 0.955 ± 0.15 | 0.694 ± 0.1 | 0.415 ± 0.028 | 0.112 ± 0.018 | 0.0593 ± 0.01 | 0.939 ± 0.1 | – | 0.969 ± 0.13 | – | 1.06 ± 0.12 | 0.999 ± 0.18 | 0.803 ± 0.072 | 0.44 ± 0.037
HS57T BREAST | 1.01 ± 0.08 | 0.957 ± 0.03 | 0.682 ± 0.0066 | 0.118 ± 0.011 | 0.07 ± 0.002 | 0.0703 ± 0.013 | 0.0633 ± 0.0096 | 0.0723 ± 0.0084 | 0.9 ± 0.077 | 0.867 ± 0.027 | – | 0.919 ± 0.095 | – | 0.863 ± 0.011 | 0.572 ± 0.035 | 0.406 ± 0.027
HS578T BREAST | 1.13 ± 0.09 | 0.976 ± 0.17 | 0.423 ± 0.021 | 0.276 ± 0.027 | 0.153 ± 0.019 | 0.138 ± 0.004 | 0.173 ± 0.011 | 0.185 ± 0.014 | 0.838 ± 0.15 | 0.824 ± 0.057 | – | 0.881 ± 0.049 | – | – | 0.871 ± 0.073 | 0.426 ± 0.054
HSSYII SYNOVIAL | 0.891 ± 0.082 | 0.836 ± 0.032 | 0.308 ± 0.033 | 0.0998 ± 0.006 | 0.0498 ± 0.003 | 0.0455 ± 0.0052 | 0.0458 ± 0.002 | 0.0588 ± 0.0063 | 0.771 ± 0.076 | 0.694 ± 0.029 | 0.755 ± 0.012 | 0.216 ± 0.01 | – | 0.765 ± 0.045 | 0.418 ± 0.02 | 0.114 ± 0.0013
HT1080 SOFT TISSUE | 1.02 ± 0.02 | 1.02 ± 0.016 | 0.903 ± 0.018 | 0.503 ± 0.01 | 0.0517 ± 0.0055 | 0.0363 ± 0.00058 | 0.038 ± 0.002 | 0.0363 ± 0.0015 | 0.9787 ± 0.0091 | – | 0.997 ± 0.021 | 0.97 ± 0.07 | – | 1.1 ± 0.031 | 0.766 ± 0.032 | 0.559 ± 0.032
HU09 BONE | 1.09 ± 0.035 | 1.02 ± 0.11 | 0.981 ± 0.1 | 0.558 ± 0.071 | 0.124 ± 0.015 | 0.0583 ± 0.0064 | 0.0547 ± 0.004 | 0.0747 ± 0.0045 | 0.865 ± 0.14 | – | 0.768 ± 0.076 | 0.637 ± 0.048 | 0.498 ± 0.051 | 0.485 ± 0.073 | 0.288 ± 0.035 | 0.161 ± 0.011
JIMT1 BREAST | 0.955 ± 0.036 | 0.9598 ± 0.0091 | 0.512 ± 0.025 | 0.304 ± 0.03 | 0.127 ± 0.011 | 0.117 ± 0.0056 | 0.113 ± 0.0063 | 0.11 ± 0.0053 | 0.826 ± 0.025 | 0.81 ± 0.07 | 0.841 ± 0.041 | 0.848 ± 0.069 | 1.05 ± 0.056 | 1.04 ± 0.075 | 0.776 ± 0.098 | 0.54 ± 0.063
JURKAT HAEMATOPOIETIC AND LYMPHOID TISSUE | 1.07 ± 0.02 | 1.066 ± 0.0099 | 0.952 ± 0.041 | 0.168 ± 0.034 | 0.0297 ± 0.00058 | 0.0247 ± 0.00058 | 0.025 | 0.0233 ± 0.00058 | 1.03 ± 0.023 | 1 ± 0.015 | 1.009 ± 0.0064 | 1.01 ± 0.025 | 1.01 ± 0.026 | 1.04 ± 0.012 | 0.677 ± 0.012 | 0.0883 ± 0.0087
KPD BONE | 0.953 ± 0.04 | 0.915 ± 0.055 | 0.96 ± 0.087 | 0.839 ± 0.093 | 0.5 ± 0.011 | 0.457 ± 0.035 | 0.445 ± 0.011 | 0.383 ± 0.026 | 0.898 ± 0.04 | 0.875 ± 0.031 | 0.928 ± 0.042 | – | 0.9567 ± 0.007 | 0.972 ± 0.022 | 0.73 ± 0.031 | 0.441 ± 0.046
LM7 BONE | 0.973 ± 0.062 | 0.9683 ± 0.0047 | 0.757 ± 0.023 | 0.499 ± 0.062 | 0.115 ± 0.0052 | 0.105 ± 0.0081 | 0.0943 ± 0.011 | 0.122 ± 0.013 | 0.786 ± 0.068 | 0.767 ± 0.028 | 0.81 ± 0.087 | 0.731 ± 0.05 | 0.93 ± 0.039 | 0.794 ± 0.016 | 0.342 ± 0.009 | 0.177 ± 0.018
MCF7 BREAST | 0.932 ± 0.027 | 0.914 ± 0.025 | 0.861 ± 0.058 | 0.817 ± 0.022 | 0.466 ± 0.017 | 0.428 ± 0.027 | 0.357 ± 0.0083 | 0.221 ± 0.018 | 0.786 ± 0.02 | 0.822 ± 0.023 | 0.8113 ± 0.0079 | 0.706 ± 0.0095 | – | 0.842 ± 0.015 | 0.751 ± 0.012 | 0.607 ± 0.015
MDAMB134 BREAST | 0.97 ± 0.1 | 0.842 ± 0.025 | 0.751 ± 0.072 | 0.691 ± 0.082 | 0.728 ± 0.016 | 0.708 ± 0.05 | 0.69 ± 0.085 | 0.767 ± 0.091 | 0.675 ± 0.021 | 0.777 ± 0.087 | 0.715 ± 0.14 | 0.675 ± 0.022 | 0.887 ± 0.067 | – | 1.05 ± 0.22 | –
MDAMB157 BREAST | 0.915 ± 0.076 | 0.872 ± 0.076 | 0.748 ± 0.084 | 0.465 ± 0.045 | 0.11 ± 0.026 | 0.0867 ± 0.013 | 0.0783 ± 0.015 | 0.12 ± 0.025 | 0.794 ± 0.024 | 0.802 ± 0.08 | 0.87 ± 0.07 | 0.869 ± 0.12 | 0.83 ± 0.032 | 0.74 ± 0.072 | 0.613 ± 0.064 | 0.404 ± 0.062
